Tests used:
[1] = molecular target: alpha-1 adrenergic receptor; assay: alpha-1 adrenergic receptor radioligand binding assay ([125I]-HEAT, cerebral cortex membranes); conditions: rat cerebral cortex membranes; radioligand used at 40 pM
Description: Cerebral cortices from male Sprague-Dawley rats (175-200 g) are dissected and homogenised in 10 volumes of ice cold 0.32 M sucrose (containing 1 mM MgCl2 dihydrate and 1 mM K2HPO4) with a glass/teflon homogeniser. The membranes are centrifuged at 1000×g for 15 miN, the pellet discarded and the centrifugation repeated. The supernatants are pooled and centrifuged at 18,000×g for 15 minutes. The pellet is osmotically shocked in 10 volumes of water and kept on ice for 30 minutes. The suspension is centrifuged at 39,000×g for 20 minutes, resuspended in Krebs-Henseleit buffer pH 7.4 (1.17 mM MgSO4 anhydrous, 4.69 mM KCl, 0.7 mM K2HPO4 anhydrous, 0.11 M NaCl, 11 mM D-glucose and 25 mM NaHCO3) containing 20 mM Tris, and kept for 2 days at −20° C. The membranes are then thawed at 20-23° C., washed three times with Krebs-Henseleit buffer by centrifugation at 18,000×g for 15 minutes, left overnight at 4° C. and washed again three times. The final pellet is resuspended with a glass/teflon homogeniser in 125 ml/100 membranes in the same buffer. […]
The resulting membranes are subjected to a radioligand binding assay. […] Following drying of the plates for 3 h. at 50° C., 40 μl of Microscint 20 is added to each well, the plates incubated at room temperature for a further 20 minutes and the retained radioactivity quantified in a Packard TopCount NXT™ scintillation counter. […]

human CCR-3 = molecular target: T1, human CCR-3 (Homo sapiens, UniProt P51677); assay: CCR-3 binding assay (SPA, [125I]-human eotaxin); conditions: membranes of RBL-2H3 cells stably expressing CCR3, 4 hours at room temperature, read-out: IC50, inhibition of binding of human eotaxin to human CCR-3
T1 construct: expressed in transfected cells; membranes
T1 sequence (P51677 1-355): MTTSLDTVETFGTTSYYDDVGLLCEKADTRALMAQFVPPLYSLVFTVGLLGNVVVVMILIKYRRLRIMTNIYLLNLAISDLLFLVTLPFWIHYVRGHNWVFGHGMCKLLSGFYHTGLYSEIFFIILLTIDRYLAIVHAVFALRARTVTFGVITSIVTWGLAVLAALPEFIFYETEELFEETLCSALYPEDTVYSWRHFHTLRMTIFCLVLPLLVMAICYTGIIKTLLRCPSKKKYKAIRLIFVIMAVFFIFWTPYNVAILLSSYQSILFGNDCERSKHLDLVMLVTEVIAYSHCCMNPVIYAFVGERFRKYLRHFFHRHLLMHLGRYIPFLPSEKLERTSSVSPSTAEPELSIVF
Description: In this assay the effect of agents of the invention on the binding of human eotaxin to human CCR-3 is determined. Recombinant cells expressing human CCR-3 are captured by wheatgerm agglutinin (WGA) polyvinyltoluidene (PVT) SPA beads (available from Amersham), through a specific interaction between the WGA and carbohydrate residues of glycoproteins on the surface of the cells. [^125I]-human eotaxin (available from Amersham) binds specifically to CCR-3 receptors bringing the [^125I]-human eotaxin in close proximity to the SPA beads. Emitted â-particles from the [^125I]-human eotaxin excite, by its proximity, the fluorophore in the beads and produce light.
Preparation of Assay Buffer: 5.96 g HEPES and 7.0 g sodium chloride are dissolved in distilled water and 1M aqueous CaCl2 (1 ml) and 1M aqueous MgCl2 (5 ml) are added. The pH is adjusted to 7.6 with NaOH and the solution made to a final volume of 1 L using distilled water. 5 g bovine serum albumin and 0.1 g sodium azide are then dissolved in the solution and the resulting buffer stored at 4° C. A Complete™ protease inhibitor cocktail tablet (available from Boehringer) is added per 50 ml of the buffer on the day of use.
Preparation of Homogenisation Buffer: Tris-base (2.42 g) is dissolved in distilled water, the pH of the solution is adjusted to 7.6 with hydrochloric acid and the solution is diluted with distilled water to a final volume of 1 l. The resulting buffer is stored at 4° C. A Complete™ protease inhibitor cocktail tablet is added per 50 ml of the buffer on the day of use.
Preparation of membranes: Confluent rat basophil leukemia (RBL-2H3) cells stably expressing CCR3 are removed from tissue culture flasks using enzyme-free cell dissociation buffer and resuspended in phosphate-buffered saline. The cells are centrifuged (800 g, 5 minutes), the pellet resuspended in ice-cold homogenisation buffer using 1 ml homogenisation buffer per gram of cells and incubated on ice for 30 minutes. The cells are homogenised on ice with 10 strokes in a glass mortar and pestle. The homogenate is centrifuged (800 g, 5 minutes, 4° C.), the supernatant further centrifuged (48,000 g, 30 minutes, 4° C.) and the pellet redissolved in Homogenisation Buffer containing 10% (v/v) glycerol. The protein content of the membrane preparation is estimated by the method of Bradford (Anal. Biochem. (1976) 72:248) and aliquots are snap frozen and stored at −80° C.
The assay is performed in a final volume of 250 μl per well of an Optiplate™ microplate (ex Canberra Packard). To selected wells of the Optiplate™ are added 50 μl of solutions of a test compound in Assay Buffer containing 5% DMSO (concentrations from 0.01 nM to 10 μM). To determine total binding, 50 μl of the Assay Buffer containing 5% DMSO is added to other selected wells. To determine non-specific binding, 50 μl of 100 nM human eotaxin (ex R&D Systems) in Assay Buffer containing 5% DMSO is added to further selected wells. To all wells are added 50 μl [^125I]-Human eotaxin (ex Amersham) in Assay Buffer containing 5% DMSO at a concentration of […] (to give a final concentration of […]), 50 μl of WGA-PVT SPA beads in Assay Buffer (to give a final concentration of 1.0 mg beads per well) and 100 μl of the membrane preparation at a concentration of 100 μg protein in Assay Buffer (to give a final concentration of 10 μg protein per well). The plate is then incubated for 4 hours at room temperature. The plate is sealed using TopSeal-S™ sealing tape (ex Canberra Packard) according to the manufacturers instructions. The resulting scintillations are counted using a Canberra Packard TopCount™ scintillation counter, each well being counted for 1 minute. The concentration of test compound at which 50% inhibition occurs (IC50) is determined from concentration-inhibition curves in a conventional manner.

histamine H1 = histamine H1 (Homo sapiens, UniProt P35367); assay: histamine H1 antagonism
histamine H1, sequence (P35367 whole entry): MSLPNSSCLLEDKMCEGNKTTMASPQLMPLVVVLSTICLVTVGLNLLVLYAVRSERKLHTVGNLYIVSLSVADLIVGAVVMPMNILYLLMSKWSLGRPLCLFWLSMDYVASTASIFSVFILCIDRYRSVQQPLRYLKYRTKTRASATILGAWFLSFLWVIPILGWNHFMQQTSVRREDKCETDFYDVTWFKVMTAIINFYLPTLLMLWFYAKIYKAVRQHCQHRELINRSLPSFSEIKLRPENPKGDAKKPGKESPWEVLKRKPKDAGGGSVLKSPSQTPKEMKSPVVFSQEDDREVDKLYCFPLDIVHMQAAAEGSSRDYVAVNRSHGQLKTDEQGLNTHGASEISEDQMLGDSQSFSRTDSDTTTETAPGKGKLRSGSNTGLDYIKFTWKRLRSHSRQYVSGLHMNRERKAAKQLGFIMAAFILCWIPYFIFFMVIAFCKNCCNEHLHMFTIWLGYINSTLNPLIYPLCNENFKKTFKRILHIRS

Row | Compound | Kd [1] [nM] | IC50 (human CCR-3) [nM] | histamine H1 antagonist activity (histamine H1)
1 | O=C1c2ccccc2CCC1CNCCc1ccc(O)c(I)c1 (centres unmarked) [[^125I]-HEAT] | 0.0589 ± 0.0187 |  | 
2 | COc1cc(NC(=O)N[C@@H](CCN2CC(Oc3ccc(Cl)cc3)C2)COC(C)=O)cc(OC)c1 [Example 122, Acetic acid (S)-4-[3-(4-chloro-phenoxy)-azetidin-1-yl]-2-[3-(3,5-dimethoxy-phenyl)-ureido]-butyl ester] |  | 22 | 
3 | COc1cc(NC(=O)N[C@H](CO)CCN2CC(Oc3ccc(Cl)cc3)C2)cc(OC)c1 [Example 26, 1-{(S)-3-[3-(4-Chloro-phenoxy)-azetidin-1-yl]-1-hydroxymethyl-propyl}-3-(3,5-dimethoxy-phenyl)-urea] |  | 7 | 
4 | Cn1nc(C2CC2)cc1NC(=O)N[C@H](CO)CCN1CC(Oc2ccc(Cl)cc2)C1 [Example 83, 1-{(S)-3-[3-(4-Chloro-phenoxy)-azetidin-1-yl]-1-hydroxymethyl-propyl}-3-(5-cyclopropyl-2-methyl-2H-pyrazol-3-yl)-urea] |  | 5 | 
5 | CCc1cc(NC(=O)N[C@H](CO)CCN2CC(Oc3ccc(Cl)cc3)C2)n(C)n1 [Example 88, 1-{(S)-3-[3-(4-Chloro-phenoxy)-azetidin-1-yl]-1-hydroxymethyl-propyl}-3-(5-ethyl-2-methyl-2H-pyrazol-3-yl)-urea] |  | 6 | 
6 | CCc1nnc(NC(=O)NCCCN2CC(Cc3ccc(Cl)cc3)C2)s1 [Example 190, 1-{3-[3-(4-chloro-benzyl)-azetidin-1-yl]-propyl}-3-(5-ethyl-[1,3,4]thiadiazol-2-yl)-urea] |  | 11 | histamine H1 antagonists
7 | CCc1nnc(NC(=O)N[C@H](CO)CCN2CC(Oc3ccc(Cl)cc3)C2)s1 [Example 99, 1-{(S)-3-[3-(4-Chloro-phenoxy)-azetidin-1-yl]-1-hydroxymethyl-propyl}-3-(5-ethyl-[1,3,4]thiadiazol-2-yl)-urea] |  | 7 | 
